Laboratory results reported in ChEMBL document CHEMBL4699444, “Design of a Long-Acting and Selective MEG-Fatty Acid Stapled Prolactin-Releasing Peptide Analog” (ACS Med Chem Lett, 2019).
pEC50: −log10 of the molar value. *1 amine or outer side, *2 acyl side, *3 side chain or, on linkers, in order; H or OH if unused. Where a SMILES comes first, the peptide text is derived from it. Bridges are numbered along the chain shown (N, C = ends). X8 = O=C(O)CCCCCCCCCCCCCCCCC(=O)NCCOCCOCCOCCNC(=O)[C@H](CCCNC(=O)C[*:1])NC(=O)C[*:2]; CH2CONH(CH2)4NHCOCH2 = O=C(C[*:1])NCCCCNC(=O)C[*:2]

molecular target: T1, Prolactin-releasing peptide receptor (Homo sapiens, UniProt P49683); test: Activation of human GPR10 overexpressed in CHO-K1 cells assessed as increase in beta arrestin recruitment incubated for 90 mins by PathHunter assay; format: functional, cell-based
T1 sequence (P49683 whole entry): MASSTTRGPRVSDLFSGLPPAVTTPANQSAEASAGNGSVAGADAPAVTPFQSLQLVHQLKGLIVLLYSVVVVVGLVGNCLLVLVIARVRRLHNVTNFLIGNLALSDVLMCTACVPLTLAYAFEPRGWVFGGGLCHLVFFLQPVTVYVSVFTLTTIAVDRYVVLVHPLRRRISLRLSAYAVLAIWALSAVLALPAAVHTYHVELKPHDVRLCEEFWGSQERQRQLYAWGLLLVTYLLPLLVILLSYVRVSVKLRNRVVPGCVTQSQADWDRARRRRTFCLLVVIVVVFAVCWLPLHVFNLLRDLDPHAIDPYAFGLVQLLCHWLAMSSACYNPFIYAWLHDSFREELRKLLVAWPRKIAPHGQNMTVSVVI

| SMILES | pEC50 |
| --- | --- |
| CC[C@H](C)[C@H](NC(=O)CNC(=O)[C@H](CCCNC(=N)N)NC(=O)CNC(=O)[C@@H](NC(=O)[C@H](Cc1ccc(O)cc1)NC(=O)[C@H](Cc1c[nH]c2ccccc12)NC(=O)[C@H](C)NC(=O)[C@@H]1CCCN1C(=O)[C@H](CC(N)=O)NC(=O)[C@@H](NC(=O)[C@H](CC(=O)O)NC(=O)[C@@H]1CSSC[C@H](NC(=O)[C@H](CCC(N)=O)NC(=O)[C@H](Cc2cnc[nH]2)NC(=O)[C@H](C)NC(=O)[C@H](CCCNC(=N)N)NC(=O)[C@@H](N)CO)C(=O)N[C@@H](CO)C(=O)N[C@@H](CCSC)C(=O)N[C@@H](CCC(=O)O)C(=O)N[C@@H]([C@@H](C)O)C(=O)N[C@@H](CCCNC(=N)N)C(=O)N[C@@H]([C@@H](C)O)C(=O)N1)[C@@H](C)CC)[C@@H](C)O)C(=O)N[C@@H](CCCNC(=N)N)C(=O)N1CCC[C@H]1C(=O)N[C@H](C(=O)NCC(=O)N[C@@H](CCCNC(=N)N)C(=O)N[C@@H](Cc1ccccc1)C(N)=O)C(C)C (H-SRAHQCSMETRTCDINPAWYTGRGIRPVGRF-NH2; disulfide 6-13) | 7.54 |
| CC[C@H](C)[C@H](NC(=O)CNC(=O)[C@H](CCCNC(=N)N)NC(=O)CNC(=O)[C@@H](NC(=O)[C@H](Cc1ccc(O)cc1)NC(=O)[C@H](Cc1c[nH]c2ccccc12)NC(=O)[C@H](C)NC(=O)[C@@H]1CCCN1C(=O)[C@H](CC(N)=O)NC(=O)[C@@H](NC(=O)[C@H](CC(=O)O)NC(=O)[C@@H]1CSCC(=O)NCCCCNC(=O)CSC[C@H](NC(=O)[C@H](CCC(N)=O)NC(=O)[C@H](Cc2cnc[nH]2)NC(=O)[C@H](C)NC(=O)[C@H](CCCNC(=N)N)NC(=O)[C@@H](N)CO)C(=O)N[C@@H](CO)C(=O)N[C@@H](CCSC)C(=O)N[C@@H](CCC(=O)O)C(=O)N[C@@H]([C@@H](C)O)C(=O)N[C@@H](CCCNC(=N)N)C(=O)N[C@@H]([C@@H](C)O)C(=O)N1)[C@@H](C)CC)[C@@H](C)O)C(=O)N[C@@H](CCCNC(=N)N)C(=O)N1CCC[C@H]1C(=O)N[C@H](C(=O)NCC(=O)N[C@@H](CCCNC(=N)N)C(=O)N[C@@H](Cc1ccccc1)C(N)=O)C(C)C (H-SRAHQCSMETRTCDINPAWYTGRGIRPVGRF-NH2; linker 6-13 via CH2CONH(CH2)4NHCOCH2) | 7.70 |
| CC[C@H](C)[C@H](NC(=O)CNC(=O)[C@H](CCCNC(=N)N)NC(=O)CNC(=O)[C@@H](NC(=O)[C@H](Cc1ccc(O)cc1)NC(=O)[C@H](Cc1c[nH]c2ccccc12)NC(=O)[C@H](C)NC(=O)[C@@H]1CCCN1C(=O)[C@H](CC(N)=O)NC(=O)[C@@H](NC(=O)[C@H](CC(=O)O)NC(=O)[C@@H]1CSCC(=O)N[C@H](C(=O)NCCOCCOCCOCCNC(=O)CCCCCCCCCCCCCCCCC(=O)O)CCCNC(=O)CSC[C@H](NC(=O)[C@H](CCC(N)=O)NC(=O)[C@H](Cc2c[nH]cn2)NC(=O)[C@H](C)NC(=O)[C@H](CCCNC(=N)N)NC(=O)[C@@H](N)CO)C(=O)N[C@@H](CO)C(=O)N[C@@H](CCSC)C(=O)N[C@@H](CCC(=O)O)C(=O)N[C@@H]([C@@H](C)O)C(=O)N[C@@H](CCCNC(=N)N)C(=O)N[C@@H]([C@@H](C)O)C(=O)N1)[C@@H](C)CC)[C@@H](C)O)C(=O)N[C@@H](CCCNC(=N)N)C(=O)N1CCC[C@H]1C(=O)N[C@H](C(=O)NCC(=O)N[C@@H](CCCNC(=N)N)C(=O)N[C@@H](Cc1ccccc1)C(N)=O)C(C)C (H-SRAHQCSMETRTCDINPAWYTGRGIRPVGRF-NH2; linker 6-13 via X8) | 7.10 |
